Reference: PMC4706877, “Antibacterial and Cytotoxic Activity of Compounds Isolated from Flourensia oolepis” (Evidence-based Complementary and Alternative Medicine : eCAM, 2015)
Where two headings read alike, the source gives them in different places.

Assays:
K562 cells [1] = test: Cell cycle distribution by flow cytometry (PI); type: cell-based, human; conditions: 2 × IC50, 72 h
Procedure: […] After treatment, cells were harvested and washed twice with ice cold PBS. Then, cells were fixed with 70% cold ethanol and kept at 4°C for 24 h. Before analysis, the cells were washed twice with PBS and stained with a solution containing propidium iodide (PI, 50 μg/mL, Sigma-Aldrich CO, USA) and RNase A (100 μg/mL, Sigma-Aldrich CO, USA) in PBS (pH 7.4) for 30 min in the dark. DNA content was evaluated by flow cytometry. The relative distribution of at least 20,000 cells was analyzed using FlowJo software version 7.6.2 (Tree Star, Inc. OR, USA).

[2] = system: peripheral blood mononuclear cells (PBMC); test: MTT cell proliferation assay; type: cell-based; conditions: Homo sapiens
From the text: (§1) CCRF-CEM acute lymphoblastic leukemia (ALL) and K562 chronic myeloid leukemia (CML) cells and their MDR P-glycoprotein overexpressing variants, CEM/ADR5000 and Lucena 1, respectively, were a generous gift from Dr. T. Efferth (Institute of Pharmacy and Biochemistry, Johannes Gutenberg University, Mainz, Germany) and Dr. V. Rumjanek (Instituto de Bioquímica Médica Leopoldo de Meis, Universidade Federal do Rio de Janeiro, Rio de Janeiro, Brazil), respectively. The HEK293T non-tumor derived cell line and human isolated mononuclear cells (PBMC) were also tested. […]
(§2) To investigate the cytotoxic potential of the isolated compounds, the MTT colorimetric assay was performed. […] The compounds were evaluated at a final maximum concentration of 100 μM. […] Absorbance was measured with an iMark micro-plate reader (Bio-Rad, USA) at 595 nm. […] The percentage of cytotoxic activity of the assayed compounds was determined by the following formula: cytotoxicity (%) = [1 − (optical density of treated cells − optical density DMSO)/(optical density of ethanol control cells − optical density DMSO)] × 100.

CML cells = test: MTT assay, summary; type: cell-based; conditions: Homo sapiens, read-out: IC50, range
From the text: as §1, §2

ALL cells = test: MTT assay, summary; type: cell-based; conditions: Homo sapiens, read-out: IC50, range
From the text: as §1, §2

[3] = system: HEK293T non-tumor derived cell line; test: MTT cell proliferation assay; type: cell-based; conditions: Homo sapiens, HEK-293T
From the text: as §1, §2

CCRF-CEM cells [4] = test: Cell cycle distribution by flow cytometry (PI); type: cell-based, human; conditions: 2 × IC50, 72 h
Procedure: Control cells were devoid of 1 and negative controls contained 1% ethanol. After treatment, cells were harvested and washed twice with ice cold PBS. Then, cells were fixed with 70% cold ethanol and kept at 4°C for 24 h. Before analysis, the cells were washed twice with PBS and stained with a solution containing propidium iodide (PI, 50 μg/mL, Sigma-Aldrich CO, USA) and RNase A (100 μg/mL, Sigma-Aldrich CO, USA) in PBS (pH 7.4) for 30 min in the dark. DNA content was evaluated by flow cytometry. The relative distribution of at least 20,000 cells was analyzed using FlowJo software version 7.6.2 (Tree Star, Inc. OR, USA).

CCRF-CEM cells [5] = test: Viable cell count by trypan blue dye exclusion; type: cell-based, human
Procedure: (§3) To confirm the effect of compound 1 on the proliferation of CCRF-CEM and K562, cell suspensions (5 × 10^4 cells/well) were treated in culture medium with different concentrations of 1 (final volume of 200 μL) and incubated in triplicate for 24, 48, and 72 h. Two independent experiments were performed. The number of viable cells at the different time points was counted by the trypan blue dye exclusion method using a hemocytometer (Neubaur, USA).

K562 cells [6] = test: Viable cell count by trypan blue dye exclusion; type: cell-based, human
Procedure: as §3

[7] = system: K562 chronic myeloid leukemia cells; test: MTT cell proliferation assay; type: cell-based, human; conditions: for IC50: K562, MTT, 72 h, read-out: IC50 values and 95% confidence limits (lower, upper)
Procedure: (§4) The HEK293T non-tumor derived cell line and human isolated mononuclear cells (PBMC) were also tested. […] Cells were cultured at 37°C in a 5% CO2 humidified environment.
(§5) To investigate the cytotoxic potential of the isolated compounds, the MTT colorimetric assay was performed. […] The compounds were evaluated at a final maximum concentration of 100 μM. After 72 hours, 20 μL of 5 mg/mL solution of MTT in sterile PBS was added to each well and further incubated for 4 h. Then, the supernatants were removed and replaced with 100 μL DMSO to solubilize the resulting purple formazan crystals produced from metabolically viable cells. Absorbance was measured with an iMark micro-plate reader (Bio-Rad, USA) at 595 nm. Two wells were used for each concentration of the products assayed and three independent experiments were performed. […] The percentage of cytotoxic activity of the assayed compounds was determined by the following formula: cytotoxicity (%) = [1 − (optical density of treated cells − optical density DMSO)/(optical density of ethanol control cells − optical density DMSO)] × 100.
(§6) Data were analyzed by one-way analysis of variance (ANOVA) and means were compared using Bonferroni's comparison test, with p ≤ 0.05 considered as statistically significant.

[8] = system: CCRF-CEM acute lymphoblastic leukemia cells; test: MTT cell proliferation assay; type: cell-based, human; conditions: for IC50: CCRF-CEM, MTT, 72 h, read-out: IC50 values and 95% confidence limits (lower, upper)
Procedure: as §4, §5, §6

O=C(/C=C/c1ccccc1)c1ccc(O)cc1O [Compound 1, 2′,4′-dihydroxychalcone]
cells in the G2/M phase (K562 cells [1]): 19%
hypodiploid sub-G1 population (K562 cells [1]; ethanol control 1%): 25%
IC50 [2]: 82.8 µM
IC50 (CML cells): 27.5 to 30 µM
IC50 (ALL cells): 6.6 to 9.9 µM
IC50 [3]: 67 µM
hypodiploid sub-G1 population (CCRF-CEM cells [4]; ethanol control 1%): 10%
cells in the G2/M phase (CCRF-CEM cells [4]; ethanol control 7%): 34%
time at which a significant difference (p < 0.05) in number of viable cells vs ethanol control was observed (CCRF-CEM cells [5]; 2.6 μM): 72 h
time at which a significant difference (p < 0.05) in number of viable cells vs ethanol control was observed (CCRF-CEM cells [5]; 5.2 μM): 48 h
time at which a significant decrease (p < 0.05) in number of viable cells vs ethanol control was observed (K562 cells [6]; 20.8 μM): 48 h
time at which a significant decrease (p < 0.05) in number of viable cells vs ethanol control was observed (K562 cells [6]; 41.6 μM): 24 h
IC50 ([7]; Homo sapiens, K562, 72 h): < 30 µM
selectivity index (SI) ([7]; IC50 PBMC / IC50 K562): 3.0
IC50 [7]: 27.5 µM
IC50 [8]: 6.6 µM
IC50 ([8]; Homo sapiens): < 10 µM
selectivity index (SI) ([8]; IC50 HEK293T / IC50 CCRF-CEM): 10.1
selectivity index (SI) ([8]; IC50 PBMC / IC50 CCRF-CEM): 12.5
